Article PMC4628094, “In Vitro Assessment of Uptake and Lysosomal Sequestration of Respiratory Drugs in Alveolar Macrophage Cell Line NR8383” (Pharmaceutical Research, 2015)
Like-named read-outs stand apart in the source and are kept apart here. Marks after values point to notes of the source that are not given here.

What was measured:
[1] = test system: Lung granule fraction containing lysosomes from male Wistar rats; set-up: method as in ref (6) (a number printed in a supplementary file, which may have a reference list of its own: not looked up in the article's list); details: NH4Cl 10 mM, drug 1 µM, 10 min; ref (6); cited from earlier work
[2] = test system: Lung tissue slices from male Wistar rats; set-up: method as in ref (8) (a number printed in a supplementary file, which may have a reference list of its own: not looked up in the article's list); details: drug 5 µM, 60 min, ref (8), cited from earlier work; for Reduction in total uptake (%): NH4Cl 20 mM
[3] = test system: Liver tissue slices from male Wistar rats; set-up: method as in ref (8) (a number printed in a supplementary file, which may have a reference list of its own: not looked up in the article's list); details: drug 5 µM, 60 min, ref (8), cited from earlier work; for Reduction in total uptake (%): NH4Cl 20 mM
[4] = test system: Brain slices from male Wistar rats; set-up: method as in ref (10) (a number printed in a supplementary file, which may have a reference list of its own: not looked up in the article's list); details: drug 5 µM, 60 min, ref (10), cited from earlier work; for Reduction in total uptake (%): NH4Cl 20 mM; for Reduction of total uptake (%): monensin 10 µM
[5] = test system: Lung tissue slices from male Wistar rats; set-up: method as in ref (9) (a number printed in a supplementary file, which may have a reference list of its own: not looked up in the article's list); details: drug 5 µM, 60 min, ref (9), cited from earlier work; for Reduction in total uptake (%): NH4Cl 20 mM
[6] = test system: Liver tissue slices from male Wistar rats; set-up: method as in ref (9) (a number printed in a supplementary file, which may have a reference list of its own: not looked up in the article's list); details: drug 5 µM, 60 min, ref (9), cited from earlier work; for Reduction in total uptake (%): NH4Cl 20 mM
[7] = test system: Lung tissue slices from male Wistar rats; set-up: method as in ref (5) (a number printed in a supplementary file, which may have a reference list of its own: not looked up in the article's list); details: NH4Cl 20 mM, drug 5 µM, 60 min, ref (5); cited from earlier work
[8] = test system: Liver tissue slices from male Wistar rats; set-up: method as in ref (5) (a number printed in a supplementary file, which may have a reference list of its own: not looked up in the article's list); details: NH4Cl 20 mM, drug 5 µM, 60 min, ref (5); cited from earlier work
[9] = test system: Lung tissue slices from male Wistar rats; set-up: method as in ref (14) (a number printed in a supplementary file, which may have a reference list of its own: not looked up in the article's list); details: monensin 10 µM, drug 5 µM, 60 min, ref (14); cited from earlier work
[10] = test system: Liver tissue slices from male Wistar rats; set-up: method as in ref (14) (a number printed in a supplementary file, which may have a reference list of its own: not looked up in the article's list); details: monensin 10 µM, drug 5 µM, 60 min, ref (14); cited from earlier work
[11] = Physicochemical properties, experimental literature values (Table I); details: classification in Table I
[12] = cited from earlier work
[13] = Drug uptake in NR8383 at 37 and 4°C (CLuptake, CLdiff, Kp); details: rat, NR8383 cells; for Kp at 10 min, 5 μM: Kp (cell-to-medium concentration ratio), NR8383, 5 μM, 37°C
Description: (§1) The studies were carried out in a 24-well plate format and the in vitro conditions were optimised in terms of cell detachment method from culture flasks, coating type of 24-well plates, seeding density, culturing time and drug incubation time points. Briefly, for cell detachment, gentle scraping versus Mg^2+-Ca^2+ free DPBS treatment of cells in culture flasks were tested. Considering the semi-adherent nature of AMs, cell seeding into non-coated, collagen-I and poly-D-lysine coated 24-well plates was investigated for cell attachment, distribution in the wells and detachment following DPBS washes during the uptake experiments. In addition, seeding densities of 0.36 and 0.72 × 10^6 cells per well were assessed with respect to cell attachment, confluency following culture (plating efficiency) and potential cell detachment following DPBS washes. Culturing time ranging from 4 to 24 h was investigated for optimal cell attachment before carrying out uptake experiments. Uptake rate and Kp data were normalised by cell number determined indirectly by measuring the amount of protein in samples by bicinchoninic acid (BCA) protein assay (Thermo Scientific, Loughborough, UK). Following the optimisation, detachment of NR8383 from cell culture flasks was performed by gentle scraping prior to cell counting and seeding into collagen-I coated 24-well plates at 0.5 × 10^6 cells per well. Cells were cultured for 16 h at 37°C, 5% CO2 (CO2 incubator, MCO-17AIC, Sanyo Biomedical, Loughborough, UK) before uptake studies performed over 1 to 10 min period.
(§2) The drug uptake in NR8383 corresponding to these conditions was described by total uptake (CLuptake) and passive diffusion (CLdiff) clearance terms, respectively. […] Substrate solutions were prepared by dilution of the stock solutions in DPBS resulting in final DMSO content < 1%. Uptake studies were performed in the presence of 1 mM ABT, a nonspecific P450 inhibitor, in order to avoid any potential impact of phase I metabolism. […] Following microscopy, the CGM was removed, cells were washed twice with 800 μL of either pre-warmed or ice-cold DPBS (for experiments at 37 and 4°C, respectively) and pre-incubation with 500 μL of pre-warmed or ice-cold ABT/DPBS was carried out for 20 min. Where ABT pre-treatment was not necessary, cell monolayers were treated with 500 μL of DPBS only. Once pre-incubation buffer was removed from the cell monolayers, incubations were started by addition of 400 μL of substrate solution (pre-warmed or ice-cold) in each well. Each substrate was incubated with the cells for 1, 2, 5 and 10 min and each time point at 37°C and 4°C. For 37°C experiments, incubation was carried out on a dry heater block maintained at 37°C throughout the experiment (Tecam Dri-block DB-3, Tecam, Princeton, NJ) and for 4°C experiments, the procedure was carried out on ice. Incubation with substrate was stopped by removal of the media with drug solution and washing the monolayers three times with 800 μL ice-cold DPBS. The back-diffusion of the drug from the cell into the medium was considered to be negligible under these conditions. The removed incubation media were retained for the measurement of drug medium concentrations and subsequent determination of Kp for each drug. The cells were lysed by addition of 200 μL ice-cold deionised water; cell lysates were kept at −20°C overnight and then processed further for LC-MS/MS analysis. Experiments were performed on three or more separate occasions for each drug investigated. […] The amount of protein per well was measured using a BSA calibration curve and absorbances read at 562 nm (S22 Boeco UV-Visible Spectrophotometer, Hamburg, Germany).

[14] = test system: NR8383 cells; test: as above; details: NR8383, 5 μM; for Contribution of passive (%): CLdiff relative to CLuptake
Description: as §1, §2

[15] = Lysosomal sequestration studies in NR8383 with NH4Cl, monensin and nigericin; details: rat, NR8383 cells; for Kp at 10 min, 5 μM: NR8383, 5 μM drug; for Kp at 10 min, 20 µM: NR8383, 20 µM drug
Description: (§3) The extent of accumulation of drugs in lysosomes was assessed using the same uptake methodology, as described above in the absence and presence of NH4Cl and ionophores, monensin and nigericin. […] In addition, a range of incubation conditions was explored, including pre-incubation and co-incubation alone and combined together. Once the conditions were optimised, further experiments were performed with 20 mM NH4Cl co-incubated with investigated drugs. […] For incubations with monensin and nigericin, all drugs were prepared at 5 μM concentration and the incubations were carried out for 5 min (single time point). Following the treatment of the cell monolayers with drug alone or drug with the agents mentioned, incubations were stopped by washing of the cells with ice-cold DPBS as described above, followed by cell lysis in deionised water. All incubations were carried out in duplicate and experiments were performed for three separate occasions. The removed incubation media were retained for the measurement of drug concentrations and subsequent determination of Kp for each compound. Analysis of samples in LC-MS/MS was performed after cells were kept at −20°C overnight.
(§4) Kp and CLuptake were determined as described above for each drug both under control condition and in the presence of a chemical agent affecting the pH gradient between cytosol and lysosomes. The reduction in Kp and CLuptake of each drug in the presence of the chemical agents was expressed as a percentage relative to control and used as an indicator of the extent of lysosomal sequestration. A 50% reduction in both parameters was set as a cut-off for lysosomal accumulation, while also taking into account the physicochemical properties of the compounds (Table I) and the uncertainty associated with the experimental data.
(§5) The in vitro parameters were calculated on at least three separate occasions and the mean data were reported. When assessing the extent of lysosomal sequestration, the control and chemical agent treated cells were compared using the two-tailed, paired t-test in order to determine statistically significant difference between the two conditions. Values were reported as significant when p < 0.05.

[16] = test system: NR8383 cells; test: as above; details: for % Reduction in Kp by NH4Cl: NH4Cl 20 mM; for reduction in Kp in the presence of chemical agents (summary in Discussion): NR8383, NH4Cl, monensin, nigericin
Description: as §3, §4, §5

[17] = experimental value, ref ([21])-([30]) per drug, Table I
[18] = Kp + NH4Cl, 20 mM NH4Cl co-incubated, 10 min

Question: For `CC(C)=CCN1CCC2(C)c3cc(O)ccc3CC1C2C` (stereo not shown) [Pentazocine], which “Reduction in total uptake (%)” value [1] is on record?
Answer: 77%

Question: For `CSc1ccc2c(c1)N(CCC1CCCCN1C)c1ccccc1S2` (stereo not shown) [Thioridazine], which “Reduction in total uptake (%)” value [2] is on record?
Answer: 41%

Question: And the “Reduction of total uptake (%)” value ([2]; monensin 10 µM)?
Answer: 35%

Question: What about the “Reduction in total uptake (%)” value [3] of the same compound?
Answer: 75%

Question: And the “Reduction of total uptake (%)” value ([3]; monensin 10 µM)?
Answer: 82%

Question: What about the “Reduction in total uptake (%)” value [4] of the same compound?
Answer: 62%

Question: What about the “Reduction of total uptake (%)” value [4] of the same compound?
Answer: 58%

Question: With `CN1CCN(CCCN2c3ccccc3Sc3ccccc32)CC1` [Perazine] as the compound, how does the “Reduction in total uptake (%)” value [5] read?
Answer: 58%

Question: And the “Reduction of total uptake (%)” value ([5]; monensin 10 µM)?
Answer: 71.6%

Question: What about the “Reduction in total uptake (%)” value [6] of the same compound?
Answer: 61%

Question: And the “Reduction of total uptake (%)” value ([6]; monensin 10 µM)?
Answer: 65%

Question: What about the “Reduction in total uptake (%)” value [4] of the same compound?
Answer: 55%

Question: What about the “Reduction of total uptake (%)” value [4] of the same compound?
Answer: 55%

Question: Which results are given for `NC(=O)N1c2ccccc2C=Cc2ccccc21` [Carbamazepine]?
Answer: Reduction in total uptake (%) [7]: 5.4%; Reduction in total uptake (%) [8]: 16.1%; Reduction of total uptake (%) [9]: 5.4%; Reduction of total uptake (%) [10]: 0%

Question: What does the source list for `CN[C@H]1CC[C@@H](c2ccc(Cl)c(Cl)c2)c2ccccc21` [Sertraline]?
Answer: Reduction in total uptake (%) [7]: 42%; Reduction in total uptake (%) [2]: 40%; Reduction in total uptake (%) [3]: 42%; Reduction in total uptake (%) [5]: 45%; Reduction in total uptake (%) [6]: 29%; Reduction of total uptake (%) [9]: 50%; Reduction of total uptake (%) [10]: 19%

Question: Which “Reduction in total uptake (%)” value [1] does the source give for `CN(C)CCCN1c2ccccc2Sc2ccc(Cl)cc21` [Chlorpromazine] here?
Answer: 8%

Question: For `CC(CN1c2ccccc2Sc2ccccc21)N(C)C` (stereo not shown) [Promethazine], which “Reduction in total uptake (%)” value [1] is on record?
Answer: 17%

Question: Which “Acid–base Property” value [11] does the source give for `CC(C)(C)NCC(O)c1cc(O)cc(O)c1` (stereo not shown) [Terbutaline] here?
Answer: Base

Question: What about the LogD7.4 ([12]; Average value of two studies, ref ([27],[28])) of the same compound?
Answer: −1.50 ^b

Question: What about the “pKa_a (acidic pKa)” value [12, 17] of the same compound?
Answer: 8.60

Question: What about the “pKa_b (basic pKa)” value [12, 17] of the same compound?
Answer: 9.90

Question: What about the hepatocyte CLint at 5 μM [13] of the same compound?
Answer: < 1 µL/min/1e6 cells

Question: What about the Kp at 10 min, 5 μM [13] of the same compound?
Answer: ~1

Question: What about the “Kp (cell-to-medium concentration ratio)” value ([14]; 37°C, 10 min) of the same compound?
Answer: 0.69 ± 0.16

Question: And the “Contribution of passive (%)” value [14]?
Answer: 47.6%

Question: And the Kp at 10 min, 5 μM [15, 18]?
Answer: 0.72 ± 0.31

Question: What about the Kp at 10 min, 20 µM ([15]; Kp + NH4Cl, 20 mM NH4Cl) of the same compound?
Answer: 0.56 ± 0.29

Question: And the Kp at 10 min, 5 μM ([15]; Kp Control, control)?
Answer: 0.92 ± 0.39

Question: And the Kp at 10 min, 20 µM ([15]; Kp Control, control)?
Answer: 0.79 ± 0.46

Question: And the “% Reduction in Kp by NH4Cl” value ([16]; NR8383, 5 μM drug)?
Answer: 21 ± 5.0%

Question: What about the “% Reduction in Kp by NH4Cl” value ([16]; NR8383, 20 µM drug) of the same compound?
Answer: 22^ a %

Question: And the “% Reduction in CLuptake by NH4Cl (20 mM)” value ([16]; NR8383, at 5 µM drug)?
Answer: 15 ± 15%

Question: What about the “% Reduction in CLuptake by NH4Cl (20 mM)” value ([16]; NR8383, at 20 µM drug) of the same compound?
Answer: 36 ± 23%

Question: What about the “reduction in Kp in the presence of chemical agents (summary in Discussion)” value [16] of the same compound?
Answer: 20–40%

Question: With `C[N+]1(C)[C@@H]2C[C@@H](OC(=O)C(O)(c3cccs3)c3cccs3)C[C@H]1[C@@H]1O[C@@H]12` [Tiotropium bromide] as the compound, how does the “Acid–base Property” value [11] read?
Answer: Permanently cationic

Question: And the Kp at 10 min, 5 μM [13]?
Answer: 8.74 ± 7.24

Question: And the “Contribution of passive (%)” value [14]?
Answer: 16.3%

Question: What about the Kp at 10 min, 5 μM [15, 18] of the same compound?
Answer: 3.87 ± 2.61

Question: What about the Kp at 10 min, 20 µM ([15]; Kp + NH4Cl, 20 mM NH4Cl) of the same compound?
Answer: 2 ± 0.64

Question: And the Kp at 10 min, 5 μM ([15]; Kp Control, control)?
Answer: 4.39 ± 2.9

Question: And the Kp at 10 min, 20 µM ([15]; Kp Control, control)?
Answer: 2.4 ± 1

Question: And the “% Reduction in Kp by NH4Cl” value ([16]; NR8383, 5 μM drug)?
Answer: 12 ± 1.8%

Question: And the “% Reduction in Kp by NH4Cl” value ([16]; NR8383, 20 µM drug)?
Answer: 35 ± 26%

Question: And the “% Reduction in CLuptake by NH4Cl (20 mM)” value ([16]; NR8383, at 5 µM drug)?
Answer: 15 ^a %

Question: What about the “% Reduction in CLuptake by NH4Cl (20 mM)” value ([16]; NR8383, at 20 µM drug) of the same compound?
Answer: 28 ^a %

Question: What about the “reduction in Kp in the presence of chemical agents (summary in Discussion)” value [16] of the same compound?
Answer: < 15%
